Measured values: paper PMC8126888 (RSC Medicinal Chemistry, 2020)
pIC50: −log10 of the molar value. Where two headings read alike, the source gives them in different places.

Tests used:
[1] = tested on: primary peritoneal mouse macrophages (PMM); assay: cells; settings: Macrophage; for pIC50: read-out: PMM IC50
[2] = in vitro; settings: human, microsomes
[3] = in vitro; settings: mouse, microsomes
[4] = physchem
[5] = tested on: Leishmania infantum MHOM/MA(BE)/67/ITMAP263 intracellular amastigotes; assay: microbe, parasite or virus in culture; settings: Macrophage, in Mus musculus
[6] = in vitro; settings: human
[7] = tested on: Trypanosoma cruzi, Tulahuen CL2, beta-galactosidase strain; assay: microbe, parasite or virus in culture; settings: for pIC50: MRC5, read-out: T. cruzi Tulahuen C4 (LacZ) IC50; for IC50: MRC5, read-out: T. cruzi Tulahuen C4 (LacZ) IC50 (uM)
[8] = read-out: PMM pIC50 (converted)
[9] = pH 7.4, Microsome Clint Human, intrinsic in vitro clearance, liver microsomes
[10] = pH 7.4, Microsome Clint Mouse, intrinsic in vitro clearance, liver microsomes
[11] = HPLC, Ascentis Express RP Amide column, pH 7.4, elog D, HPLC measured log D, pH 7.4
[12] = read-out: L. inf. pIC50, intracellular amastigotes in PMM (converted), geometric mean of a minimum of two experiments ± standard error
[13] = pH 7.4, elog D, HPLC measured log D, pH 7.4
[14] = pH 7.4, Microsome Clint,u Human, Table 2, intrinsic in vitro clearance, liver microsomes
[15] = HPLC, Ascentis Express RP Amide column, pH 7.4, eLogD, experimental
[16] = read-out: L. Inf. pIC50, from L. infantum intracellular amastigote IC50 (converted)
[17] = read-out: L. infantum MHOM/MA(BE)/67/ITMAP263 intracellular amastigotes IC50, intracellular amastigotes
[18] = read-out: L. infantum MHOM/MA(BE)/67/ITMAP263 intracellular amastigotes IC50 (uM), intracellular amastigotes

| Structure (SMILES) | IC50 [1, 8] [µM] | microsomal CLint at 0.5 μM [2, 9] [µL/min/mg] | chromatographic logD [4, 11] | IC50 [5, 12] [µM] | microsomal CLint at 0.5 h, 0.5 µM [2, 9] [µL/min/mg] | microsomal CLint at 0.5 h, 0.5 µM [3, 10] [µL/min/mg] | other results |
| --- | --- | --- | --- | --- | --- | --- | --- |
| COc1ccc(OC)c(S(=O)(=O)N(Cc2ccccc2)Cc2ccccc2)c1 [Compound 9] | > 64.6 | 242 | 4.6 | 0.372 |  |  | microsomal CLint at 0.5 μM [3, 10]: 1300 µL/min/mg |
| COc1ccc(S(=O)(=O)N(Cc2ccccc2)Cc2ccccc2)cc1 [Compound 11] | > 64.6 | 184 | 4.7 | 45.7 |  |  | microsomal CLint at 0.5 μM [3, 10]: 2410 µL/min/mg |
| N#Cc1ccccc1S(=O)(=O)N(Cc1ccccc1)Cc1ccccc1 [Compound 13] | > 64.6 |  | 4.3 | 11.2 | 699 |  |  |
| CS(=O)(=O)c1ccccc1S(=O)(=O)N(Cc1ccccc1)Cc1ccccc1 [Compound 14] | > 64.6 |  | 4 | 32.4 | 417 | 2880 |  |
| O=S(=O)(c1ccccc1OC(F)(F)F)N(Cc1ccccc1)Cc1ccccc1 [Compound 15] | > 64.6 |  | 5.1 | 1.1 | 92.9 |  | microsomal CLint at 0.5 μM [3, 10]: 689 µL/min/mg |
| N#Cc1ccc(O)c(S(=O)(=O)N(Cc2ccc(F)cc2)Cc2ccc(F)cc2)c1 [Compound 16] | 45.7 |  | 3.7 | 30.9 | 27.4 | 1100 |  |
| COc1ccc(C#N)cc1S(=O)(=O)N(Cc1ccccc1)Cc1ccccc1 [Compound 17] | > 64.6 | 304 | 4.3 | 0.437 |  |  |  |
| COc1ccc(F)cc1S(=O)(=O)N(Cc1ccccc1)Cc1ccccc1 [Compound 18] | > 64.6 | 955 | 4.7 | 1.38 |  |  |  |
| COc1ccc(Cl)cc1S(=O)(=O)N(Cc1ccccc1)Cc1ccccc1 [Compound 19] | > 64.6 | 407 |  | 1.38 |  |  | microsomal CLint at 0.5 μM [3, 10]: 1350 µL/min/mg |
| COc1ccc(C(=O)O)cc1S(=O)(=O)N(Cc1ccccc1)Cc1ccccc1 [Compound 20] | > 64.6 | < 23 | 2.5 | 57.5 |  | 94 |  |
| COc1ccc(C(N)=O)cc1S(=O)(=O)N(Cc1ccccc1)Cc1ccccc1 [Compound 21] | > 64.6 | 108 | 3.6 | 7.41 |  |  | microsomal CLint at 0.5 μM [3, 10]: 1670 µL/min/mg |
| COc1ccc(C(=O)N2CCOCC2)cc1S(=O)(=O)N(Cc1ccccc1)Cc1ccccc1 [Compound 22] | 45.7 | 810 | 3.8 | 0.457 |  | 2020 |  |
| COc1ccc(CN2CCOCC2)cc1S(=O)(=O)N(Cc1ccc(F)cc1)Cc1ccc(F)cc1 [Compound 24] | > 64.6 |  |  | 0.525 | 49.4 |  | microsomal CLint at 0.5 μM [3, 10]: 3200 µL/min/mg |
| COc1ccc(N2CCOCC2)cc1S(=O)(=O)N(Cc1ccc(F)cc1)Cc1ccc(F)cc1 [Compound 25] | > 64.6 |  | 4.2 | 0.324 | 421 | 1400 |  |
| COc1ccc(S(N)(=O)=O)cc1S(=O)(=O)N(Cc1ccccc1)Cc1ccccc1 [Compound 27] | > 64.6 |  | 3.6 | 0.562 | 94.1 | 884 |  |
| COc1ccc([S+](C)[O-])cc1S(=O)(=O)N(Cc1ccccc1)Cc1ccccc1 (centres unmarked) [Compound 28] | > 64.6 |  | 3.5 | 0.589 | 233 | 929 |  |
| COc1ncccc1S(=O)(=O)N(Cc1ccccc1)Cc1ccccc1 [Compound 30] | > 64 | 849 |  | 0.646 |  | 2570 | chromatographic logD [4, 13]: 4.3 |
| Cn1cccc(S(=O)(=O)N(Cc2ccc(F)cc2)Cc2ccc(F)cc2)c1=O [Compound 31] | > 64 |  |  | 20.9 | 676 | 2450 | chromatographic logD [4, 13]: 3.7 |
| COc1ccc(OC)c(S(=O)(=O)N(Cc2ccc(F)cc2)Cc2ccc(F)cc2)c1 [Compound 32] | > 64.6 |  | 4.7 | 0.537 |  |  |  |
| COc1ccc(OC)c(S(=O)(=O)N(Cc2ccc(F)cc2)c2ccc(F)cc2)c1 [Compound 33] | > 64.6 |  | 4.3 | 11.5 |  |  | microsomal CLint at 0.5 h, 0.5 µM [2, 14]: 482 µL/min/mg; microsomal CLint at 0.5 h, 0.5 µM ([3]; pH 7.4, Microsome Clint,u Mouse, Table 2, intrinsic in vitro clearance, liver microsomes): 1560 µL/min/mg |
| COCCN(Cc1ccccc1)S(=O)(=O)c1cc(OC)ccc1OC [Compound 39] | > 64.6 |  | 3.5 | 2.09 |  |  | microsomal CLint at 0.5 μM [2, 14]: 253 µL/min/mg |
| COc1ccc(OC)c(S(=O)(=O)N(Cc2ccccc2)C2CCN(C(C)=O)CC2)c1 [DNDI0003366132] |  |  |  |  |  |  | pIC50 [1]: < 4.19; chromatographic logD [4, 15]: 3.1; CC50 at 3 days [6]: > 64 µM; IC50 [5, 16]: > 64 µM; pIC50 [5, 17]: < 4.19; pIC50 [7]: < 4.19 |
| COc1ccc(C(N)=O)cc1S(=O)(=O)N(Cc1ccccc1)Cc1ccccc1 [DNDI0003366135] |  |  |  |  |  |  | pIC50 [1]: < 4.19; microsomal CLint at 0.5 μM ([2]; pH 7.4, HLM CLint, human liver microsomes): 108 µL/min/mg; microsomal CLint at 0.5 μM ([3]; pH 7.4, MLM CLint, mouse liver microsomes): 1670 µL/min/mg; CC50 at 3 days [6]: 43.2 µM; IC50 [5, 16]: 7.41 µM; pIC50 [5, 17]: 5.13; pIC50 [7]: < 4.19 |
| COc1ncc(C#N)cc1S(=O)(=O)N(Cc1ccc(F)cc1)Cc1ccc(F)cc1 [DNDI0003369123] |  |  |  |  |  |  | pIC50 [1]: < 4.19; chromatographic logD [4, 15]: 4.5; CC50 at 3 days [6]: > 64 µM; IC50 [5, 16]: 7.59 µM; pIC50 [5, 17]: 5.12; pIC50 [7]: 5.08 |
| O=S1(=O)c2ccccc2OCC(Cc2ccccc2)N1Cc1ccccc1 (centres unmarked) [DNDI0003370081] |  |  |  |  |  |  | pIC50 [1]: 4.34; chromatographic logD [4, 15]: 5; CC50 at 3 days [6]: > 64 µM; IC50 [5, 16]: 33.1 µM; pIC50 [5, 17]: 4.48; pIC50 [7]: < 4.19 |
| COCCN(Cc1ccccc1)S(=O)(=O)c1cc(C(=O)N2CCOCC2)ccc1OC [DNDI0003392126] |  |  |  |  |  |  | IC50 ([1]; read-out: PMM IC50 (uM)): > 64 µM; CC50 at 3 days [6]: > 64 µM; IC50 [5, 16]: 43.7 µM; IC50 [5, 18]: 44 µM; IC50 [7]: > 64 µM |
| COCCN(Cc1ccccc1)S(=O)(=O)c1cc(C(=O)N2CCNCC2)ccc1OC [DNDI0003392127] |  |  |  |  |  |  | IC50 ([1]; read-out: PMM IC50 (uM)): > 64 µM; CC50 at 3 days [6]: > 64 µM; IC50 [5, 16]: 36.3 µM; IC50 [5, 18]: 35.9 µM; IC50 [7]: 13.4 µM |
| COc1ccc(Cl)cc1S(=O)(=O)N(CC(=O)N1CCOCC1)Cc1ccccc1 [SCYX0001379806] |  |  |  |  |  |  | pIC50 [1]: < 4.49; CC50 at 3 days [6]: > 32 µM; IC50 ([5]; read-out: L. Inf. pIC50 (converted)): > 32 µM; pIC50 ([5]; read-out: L. infantum MHOM/MA(BE)/67/ITMAP263 intracellular amastigotes IC50): < 4.49; pIC50 [7]: < 4.49 |
